Results published in patent US9180187B2, “Medicament for treating and/or preventing cancer” (TORAY INDUSTRIES, INC., priority 2010, dated 2015).
Like-named read-outs stand apart in the source and are kept apart here.

Experiments:
[1] = test system: MCF-7 human breast cancer cell line; test: 50% inhibitory concentration of antitumor agents, living cell count with trypan blue; type: cell-based; settings: MCF7, 48 h, read-out: 50% inhibitory concentration of antitumor agents against MCF-7
Method: The cell line was prepared to 1×10^5 cells/ml and then cultured on a 6-well plate under conditions of 37° C. and 5% CO2 for one day. Then, the cell was treated with each antitumor agent at final concentrations of 0.001 μM, 0.01 μM, 0.1 μM, 1.0 μM, and 10 μM, followed by 2-days culture under conditions of 37° C. and 5% CO2. After removal of the culture medium, the cell was washed twice with PBS(−), to which 0.25% Trypsin-EDTA was then added in order to detach the cell from the plate. The thus detached cell was suspended with PBS(−) to a volume of 100 to which 10 μl of 0.4% trypan blue stock solution was then added, and the mixture was measured for counts of living cells using a hemocytometer. The rate of living cells in case that the cell was treated with each antitumor agent (i.e., a chemotherapeutic) was calculated, wherein the number of living cells in case that the cell was not treated with each antitumor agent was designated at 100%. 50% inhibitory concentration was roughly estimated based on the obtained values, and each antitumor agent was prepared to have a concentration around the determined 50% inhibitory concentration, and thereafter procedures similar to the above were further performed in order to calculate a more specific 50% inhibitory concentration.
MCF-7 cell line was prepared to 1×10^5 cells/mL, and then cultured on a 6-well plate under conditions of 37° C. and 5% CO2 for one day. […] After removal of the culture medium, the cell was washed with PBS(−) twice, to which 0.25% Trypsin-EDTA was added in order to detach the cell from the plate. The detached cell was suspended in PBS(−) to a volume of 100 μl, to which 10 μl of 0.4% trypan blue stock solution was further added. The mixture was measured for counts of living cells using a hemocytometer. […] The IC50 values of respective antitumor agents in each type of cancer cells were calculated by using the same procedures.

[2] = test system: human breast cancer cell line MDA-MB-157; test: ADCC activity, chromium-51 release; type: cell-based; settings: 1 μg antibody, mouse lymphocytes 2×10^5 cells, 10^3 target cells, 4 hours
Method: The above-selected anti-CAPRIN-1 monoclonal antibodies #1 to #11 were evaluated for their cytotoxic activities against cancer cells (ADCC activity). Hybridomas producing the monoclonal antibodies #1 to #11 were each cultured using hybridoma SFM medium (Invitrogen). The thus obtained supernatant was purified using Hitrap ProteinA Sepharose FF (GE HealthCare), replaced with PBS(−), and then filtered through 0.22 μm filter (Millipore). The obtained filtrates were used as antibodies for assay. The human breast cancer cell line MDA-MB-157 (10^6 cells) was collected in a 50-ml centrifuge tube, to which 100 μCi chromium(Cr)-51 was then added, and incubated at 37° C. for 2 hours. Subsequently, the cells were washed 3 times with RPMI1640 medium containing 10% FBS, and then dispensed into each well of a 96-well V-bottom plate at 10^3 cells per well. The thus obtained cells are used as target cell. The above purified antibodies (1 μg each) were added to the cells. Separately, mouse lymphocytes separated from the mouse spleen were further added (2×10^5 cells) and then cultured under conditions of 37° C. and 5% CO2 for 4 hours. After culture, the amount of chromium(Cr)-51 released from cytotoxically impaired tumor cells in a culture supernatant was measured, so that the ADCC activity of each anti-CAPRIN-1 antibody against cancer cells was calculated. […] On the other hand, similar procedures were performed using the monoclonal antibodies (which were prepared in Example 2) reactive with the CAPRIN-1 protein itself, but not reactive with the surface of cancer cells, no cytotoxic activity was observed (see FIG. 1). […] Similarly, the anti-CAPRIN-1 antibodies were examined for ADCC activity against other human cancer cell lines including glioma cell lines (T98G and U373), lung cancer cell lines (A549 and QG56), renal cancer cell lines (Caki-1 and ACHN), a uterine cervix cancer cell line (SW756), a bladder cancer cell line (T24), an esophageal cancer cell line (KYSE180), gastric cancer cell lines (MNK28 and MNK45), a colorectal cancer cell line (SW480), a leukemia cell line (AML5), and a lymphoma cell line (Ramos).

[3] = test system: MCF-7 human breast cancer cell line; test: In vivo combination therapy in tumor-bearing nude mice transplanted with MCF-7; settings: experimental section 1 (anti-CAPRIN-1 antibody = #2, 5 mg/kg i.p.), day 26, mouse PBMC given to all groups
Method: IgG2b (R&D systems, catalog No. MAB11291)) were administered in combination, a group to which an antitumor agent and anti-CAPRIN-1 monoclonal antibody were administered in combination, and a group to which control (PBS(−) was administered. In addition, mouse PBMC was administered to all the administration groups. […] PBMC separated from Balb/c mouse spleen was intravenously administered to each mouse at 1×10^7 cells/0.2 mL (RPMI1640) on days 0, 8, and 15 after the start of the experiment. […] PBMC separated from Balb/c mouse spleen was intravenously administered to each mouse at 1×10^7 cells/0.2 mL (RPMI1640) on days 0, 8, and 15 after the start of the experiment. Paclitaxel was intraperitoneally administered to each of 5 tumor-bearing mice at 15 mg/kg/shot on days 0 and 3 after the start of the experiment. PBMC separated from Balb/c mouse spleen was intravenously administered to each mouse at 1×10^7 cells/0.2 mL (RPMI1640) on days 0, 8, and 15 after the start of the experiment. Docetaxel was intraperitoneally administered to each of 5 tumor-bearing mice at 10 mg/kg/shot on days 0 and 3 after the start of the experiment. PBMC separated from Balb/c mouse spleen was intravenously administered to each mouse at 1×10^7 cells/0.2 mL (RPMI1640) on days 0, 8, and 15 after the start of the experiment. […]

[4] = MCF-7, 2-days culture with agent, living cells counted with trypan blue

| IC50 [1, 4] | Molecule | ADCC activity (cytotoxic activity) against MDA-MB-157 [2] | further results |
| --- | --- | --- | --- |
|  | O=P1(N(CCCl)CCCl)NCCCO1 (centres unmarked) [Cyclophosphamide, cyclophosphamide] |  | IC50 [1]: 30 nM |
| 20 nM | CCC1=C[C@@H]2CN(C1)Cc1c([nH]c3ccccc13)[C@@](C(=O)OC)(c1cc3c(cc1OC)N(C)[C@H]1[C@@](O)(C(=O)OC)[C@H](OC(C)=O)[C@]4(CC)C=CCN5CC[C@]31[C@@H]54)C2 [Vinorelbine, vinorelbine] |  |  |
| 10 nM | CC(=O)O[C@H]1C(=O)[C@@]2(C)[C@H]([C@H](OC(=O)c3ccccc3)[C@]3(O)C[C@H](OC(=O)[C@H](O)[C@@H](NC(=O)c4ccccc4)c4ccccc4)C(C)=C1C3(C)C)[C@]1(OC(C)=O)CO[C@@H]1C[C@@H]2O [Paclitaxel, paclitaxel] |  |  |
| 0.1 nM | CC(=O)O[C@@]12CO[C@@H]1C[C@H](O)[C@@]1(C)C(=O)[C@H](O)C3=C(C)[C@@H](OC(=O)[C@H](O)[C@@H](NC(=O)OC(C)(C)C)c4ccccc4)C[C@@](O)([C@@H](OC(=O)c4ccccc4)[C@H]21)C3(C)C [Docetaxel, docetaxel] |  |  |
|  | monoclonal antibody #1: mouse anti-CAPRIN-1 monoclonal antibody; heavy chain variable region SEQ ID NO: 43, light chain variable region SEQ ID NO: 47 (antibody, listed as Mus musculus, V domains shown) VH: MEWSGVFIFLLSGTAGVLSEVQLHQFGAELVKPGASVKISCKASGYTFTDYNMDWVKQSHGKSLEWIGDINPNYDSTSYNQKFKGKATLTVDKSSSTAYMELRSLTSEDTAVYYCARSRSYDYEGFAYWGQGTLVTVSAAKTTPPSVY VL: MSVLTQVLGLLLLWLTGARCDIQMTQSPASLSASVGETVTITCRASGNIHNYLAWYQQKQGKSPQLLVYNAKTLADGVPSRFSGSGSGTQYSLKINSLQPEDFGSYYCQHFWSTLTFGAGTKLELKRADAAPTVSNPYD | 22.1% |  |
|  | monoclonal antibody #2: mouse anti-CAPRIN-1 monoclonal antibody; heavy chain variable region SEQ ID NO: 43, light chain variable region SEQ ID NO: 53 (antibody, listed as Mus musculus, V domains shown) VH: MEWSGVFIFLLSGTAGVLSEVQLHQFGAELVKPGASVKISCKASGYTFTDYNMDWVKQSHGKSLEWIGDINPNYDSTSYNQKFKGKATLTVDKSSSTAYMELRSLTSEDTAVYYCARSRSYDYEGFAYWGQGTLVTVSAAKTTPPSVY VL: AVLRCSRGLLVIWISDIQLTQSPSSLAVTAGEKVTMSCKSSQSLLWSVNQKNYLSWYQQKQRQPPKLLIYGASIRESWVPDRFTGSGSGTDFTLTISNVHAEDLAVYYCQHNHGSFLPSRSEQVPSWRSNNR | 29.1% | tumor volume relative to PBS(−) control group designated at 100% [3]: about 56% |
|  | monoclonal antibody #6: mouse anti-CAPRIN-1 monoclonal antibody; heavy chain variable region SEQ ID NO: 73, light chain variable region SEQ ID NO: 77 (antibody, listed as Mus musculus, V domains shown) VH: DILQASGYSFTGYTMNWVKQSHGKNLEWIGLINPYNGGTSYNQKFKGKATLTVDKSSSTAYMELLSLTSEDSAVYYCARWGVWSAMDYWGQGTTVTVSSK VL: DRVSITCKASQNVRTAVAWYQQKPRQSPKALIYLASNRDTGLPDRFPGRGSGTDFTLNITNVQSEDLEDYFCLQHCNYPNEFRGCTKVPI | 30.2% |  |
